Experimental data: patent US20090131370A1, “Novel Nucleoside Derivatives” (METABASIS THERAPEUTICS , INC., priority 2004, published 2009)
Read-outs that look alike come from different tables or passages of the source.

Assays:
[1] = Susceptibility to non-productive metabolism (deamination) in vitro in rat whole blood or plasma; type: in vitro ADME
Method: The susceptibility of 2′-β-C-methyladenosine, and its 2′,3′-carbonate prodrugs to non-productive metabolism was evaluated in vitro and in vivo. […] Aliquots of the blood and plasma samples were removed periodically and extracted with perchloric acid and methanol, respectively, and then centrifuged. The acidic supernatants were neutralized with potassium carbonate and recentrifuged. […] Analysis (50 μL) was performed on an Agilent Zorbax SB-Aq column (4.6×150 mm) eluted with a gradient consisting of a mixture of Buffer A (20 mM potassium phosphate pH 6.2) and Buffer B (acetonitrile) (0-10 min, 0-10%; 10-20 min, 10-80%, 20-21 min, 80-0%; 21-30 min, 0-0%) and UV absorbance monitoring at 265 nm. The flow rate was 1.5 mL/min and the column temperature was set at 40° C. Concentrations of metabolite were determined from calibration curves prepared by spiking known amounts of standards to plasma and processing as before.

HCV = experiment: Antiviral activity in HCV-infected human liver slice assay; type: cell-based, hepatitis C virus; conditions: HCV RNA in culture media
Method: The effect of various compounds on HCV replication in human liver tissue was evaluated as described below.
Liver from a brain-dead HCV antibody-positive human patient was perfused with ice-cold Viaspan (Dupont Pharmaceutical) preservation solution and received on ice in Viaspan.
Precision-cut liver slices of ˜200-250 μm thickness and […] diameter were prepared and cultured in Waymouth's cell culture medium (Gibco, Inc.) that was supplemented with 10% fetal bovine serum and 10 mL/L Fungi-Bact at 37° C., and gassed with carbogen (95% O2, 5% CO2) at 0.75 liters/min. Tissue slices were maintained in culture for 72 h. Cell culture medium containing test compound in solution was changed on a daily basis.
At appropriate times of liver slice incubation, liver slices and medium were collected for analysis of HCV RNA (tissue and medium) and nucleotide levels (NTP). All collected media and tissue slices were maintained in liquid N2 until analysis.
Medium and tissue samples were analyzed for HCV RNA levels according to published procedures (Bonacini et. al., 1999) which utilize an automated, multicycle, polymerase chain reaction (PCR)-based technique. This assay has a lower limit of detection for HCV RNA of 100 viral copies/ml. Frozen liver slices were disrupted by using a combination of ultrasound probe sonication, Branson Sonifier 450 (Branson Ultrasonics, Danbury, Conn.) and homogenization using a Dounce conical pestle in 200 μls of 10% (v/v) perchloric acid (PCA). After a 5 min centrifugation at 2,500×g, the supernatants were neutralized using 3 M KOH/3 M KHCO3 and mixed thoroughly. The neutralized samples were centrifuged at 2,500 g for 5 min and NTP levels were determined by ion exchange phase HPLC (Hewlett Packard 1050) using a Whatman Partisil 5 SAX (5 μm, 4.6×250 mm) column. Samples (50 μL) were injected onto the column in 70% 10 mM ammonium phosphate buffer and 30% 1 M ammonium phosphate buffer, both at pH 3.5 and containing 6% ethanol. Nucleoside triphosphates were eluted from the column using a linear gradient to 80% 1 M ammonium phosphate pH 3.5/6% ethanol buffer, at a flow rate of 1.25 mL/min and detected by UV absorbance (254 nm).

[2] = rat, in vivo
Method: Analog and Its 2′,3′-Carbonate Prodrugs The liver selectivity of an antiviral nucleoside, 2′-B-C-methyladenosine, and its 2′,3′-carbonate prodrugs was evaluated in the rat by comparing liver nucleotide concentrations to levels of a major metabolite in the plasma or to concentrations of extrahepatic nucleotides. An elevated liver selectivity index is an indication of improved liver targeting of the antiviral agent and reduced exposure to other organs that may be potential targets of toxicity.
At pre-specified times of 20 min, 1, 3, 5, 8, 16, and 24 hrs post dose, liver, heart, and thigh muscle samples (˜1 g) were harvested by freeze-clamping and homogenized in 3 volumes of ice-cold acetonitrile. Following centrifugation to clarify the homogenate, aliquots of the tissue extracts were evaporated to dryness on a Savant Speed-Vac Plus (1 hr, room temperature). The resulting dried residue was reconstituted with 100 μL of mobile phase and then analyzed for nucleotides by an LC-MS/MS method as described in Example I. In addition to solid tissue, blood was collected in heparin tubes at the pre-specified times and centrifuged to obtain plasma. The plasma samples (100 μL) were extracted with 1.5 volumes of methanol and centrifuged for 20 min at top speed on a microfuge. Plasma concentrations of a major metabolite of 2′-B-C-methyladenosine, i.e., 2′-B-C-methylinosine, were determined by LC-UV as described in Example E.
The area under the curve (AUC) to the last measurable time point was calculated by trapezoidal summation of the liver, heart, and muscle concentration-time profile of total nucleotides and NTP and of the plasma concentration-time profile of the major metabolite 2′-B-C-methylinosine. The liver selectivity index was determined by two methods: (1) dividing liver NTP AUC by heart nucleotide AUC and (2) dividing liver NTP AUC by plasma 2′-3-C-methylinosine AUC.

[3] = Oral bioavailability in the rat based on liver nucleotide concentrations
Method: At pre-specified times of 20 min, 1, 3, 5, 8, 16, and 24 hrs post dose, liver samples (˜1 g) were collected by freeze-clamping and homogenized in 3 volumes of ice-cold 60% acetonitrile. Following centrifugation to clarify the homogenate, aliquots of the supernatants (100 μL) were evaporated to dryness on a Savant Speed-Vac Plus (1 hr, room temperature). The resulting dried residue was reconstituted with 100 μL of mobile phase and then analyzed for nucleotides by an LC-MS/MS method as described below.
The reconstituted extracts in mobile phase A (20 mM N,N-dimethylhexylamine and 10 mM propionic acid in 20% methanol) were analyzed by LC-MS/MS (Applied Biosystems, API 4000) equipped with an Agilent 1100 binary pump and a LEAP injector. […] Where possible, the quantitative analysis of liver NMP, NDP, and NTP were calculated based on a calibration curve generated from their respective standards (0.01-30 μM).
The area under the curve (AUC) to the last measurable time point were calculated by trapezoidal summation of the liver concentration-time profile of total nucleotides and NTP. The OBAV was determined by dividing the dose-normalized AUC following oral administration by the AUC following IV dosing.

[4] = Susceptibility to non-productive metabolism in vivo: 2′-β-C-methylinosine AUC in rat plasma and tissues; parameters: species or system male Sprague-Dawley rats; conditions: male, Sprague-Dawley
Method: The susceptibility of 2′-β-C-methyladenosine, and its 2′,3′-carbonate prodrugs to non-productive metabolism was evaluated in vitro and in vivo. […] Also at the pre-specified times, blood (heparinized) was collected from the vena cava and centrifuged briefly to obtain plasma. […] The supernatant was then analysis for deaminated products and other metabolites by LC-UV as described above.

[5] = Kinetics of conversion of HepDirect-carbonate prodrugs to nucleoside monophosphates by human liver microsomes; type: in vitro ADME; conditions: activation to NMP, Lineweaver-Burke plot
Method: The kinetics of activation of prodrug analogues to NMP were evaluated in the microsomal fraction of human liver.
Human liver microsomes were purchased from In Vitro Technologies. The study was performed at 2 mg/mL human liver microsomes, 100 mM KH2PO4, 10 mM glutathione, 0-250 μM compound, and 2 mM NADPH for 0-7.5 min. in an Eppendorf Thermomixer 5436 (37° C., 850 rpm). The reactions were initiated by addition of NADPH following a 2-min. preincubation. Reactions were quenched with 60% methanol at 0, 2.5, 5, and 7.5 min. The resulting extracts were clarified by centrifugation at 14,000 rpm in an Eppendorf microfuge (20 min.). The supernatants (200 μL) were evaporated under vacuum and, heat to dryness. The dried residue was reconstituted with 200 μL of water and the mixture was centrifuged for 10 min at 14,000 rpm. […] NMP was detected by using MS/MS mode (M^−/78.8) and quantified based on comparison to a standard of lamivudine monophosphate. Kinetic parameters were determined from a Lineweaver-Burke plot of the data with use of SigmaPlot 9.0 software.

[6] = Conversion of Compound 31.5 to 2′-β-methyladenosine in rat liver S9; type: in vitro ADME; conditions: Rat liver S9, 37° C., pH 7.4
Method: (§1) The rate of Compound 31.5 conversion to nucleoside was evaluated in liver S9 obtained from rat, dog, monkey and human liver. […] The homogenate was centrifuged in a Sorvall RC-5B Refrigerated Superspeed Centrifuge (30 minutes at 10,000 g) and the resulting supernatant used in the assays. The other S9 preparations were purchased from 1n Vitro Technologies. […] Aliquots of the reaction mixture were quenched with 2 volumes of ice-cold acetonitrile/0.2% formic acid (pH 3.0) at appropriate time intervals, briefly vortexed, and then immediately placed on dry ice. After all time points were taken, the samples were centrifuged in an Eppendorf microfuge (14,000 rpm, 10 minutes). The supernatant fractions were analyzed for disappearance of prodrug (and appearance of 2′-β-methyladenosine) by reverse phase HPLC on an Agilent Zorbax SB-Aq column (511m, 4.6×150 mm). The loading mobile phase buffer (Buffer A) consisted of a 9:1 ratio (v/v) of 20 mM potassium phosphate, pH 6.2 and acetonitrile. […] The elution of reaction components was monitored at […]. Quantitation was by comparison to authentic standards prepared in liver S9 and processed in an identical fashion to the unknown samples. The rate of prodrug conversion was calculated from the linear portion of the reaction curves and expressed as nmoles converted per mg of S9 protein per minute of reaction time.

[7] = Conversion of Compound 31.5 to 2′-β-methyladenosine in dog (Beagle) liver S9; type: in vitro ADME; conditions: Beagle liver S9, 37° C., pH 7.4
Method: as §1

[8] = Conversion of Compound 31.5 to 2′-β-methyladenosine in human liver S9; type: in vitro ADME; conditions: Human liver S9, 37° C., pH 7.4
Method: as §1

[9] = Conversion of Compound 31.5 to 2′-β-methyladenosine in monkey liver S9; type: in vitro ADME; conditions: Monkey liver S9, 37° C., pH 7.4
Method: as §1

Compound	% decrease in viral RNA relative to untreated liver slices (HCV; 0.25 μM)	% decrease in viral RNA relative to untreated liver slices (HCV; 2.5 μM)	% decrease in viral RNA relative to untreated liver slices (HCV; 25 μM)	% decrease in viral RNA relative to untreated liver slices (HCV; 100 μM)	deaminated product 2′-B-C-methylinosine in plasma, liver, heart, and muscle tissue [4]	deaminated product (2′-β-C-methylinosine) after incubation in rat whole blood in vitro ([1]; rat)	Km [5]	Vmax [5]	Heart Nucleotides AUC ([2]; male, Sprague-Dawley)	Liver NTP AUC ([2]; male, Sprague-Dawley)	Plasma 2′-β-C-Methylinosine AUC ([2]; male, Sprague-Dawley)	ORAL BIOAVAILABILITY ([3]; male, Sprague-Dawley, in vivo)	also measured
2′-β-C-methyladenosine [reference compound]	0%	83%	94%	92%	–	–	–	–	–	–	–	–	deaminated product (2′-β-C-methylinosine) after incubation in rat whole blood in vitro ([1]; rat whole blood, 37° C.): 2′-β-C-methylinosine was observed; Liver NTP AUC [2]: 15; Plasma 2′-β-C-Methylinosine AUC [2]: 11; Plasma concentrations of the main metabolite, 2′-B-C-methylinosine [2]: detectable; concentrations of nucleotides of 2′-methyladenosine in heart and muscle tissue [2]: measurable in heart and muscle tissue; ORAL BIOAVAILABILITY ([3]; dose-normalized liver nucleotide AUC oral / IV): < 5%; ORAL BIOAVAILABILITY ([3]; dose-normalized liver nucleotide AUC oral / IV, listed as 2′-β-C-Methyladenosine): 2%
C[C@@]12OC(=O)O[C@@H]1[C@@H](COP1(=O)OCC[C@@H](c3ccncc3)O1)O[C@H]2n1cnc2c(N)ncnc21 (stereo partly shown) [Compound 30.1]	–	–	–	–	no or only trace levels of the deaminated product were measurable	no deaminated products were detected	64 µM	0.36 nmol/min/mg	2.6	841	< 7.1	–	–
CC1(C)C[C@@H](c2cccc(F)c2F)OP(=O)(OC[C@H]2O[C@@H](n3cnc4c(N)ncnc43)[C@]3(C)OC(=O)O[C@H]23)O1 (stereo partly drawn) [Compound 30.10, cis-5′-O-[6-(2,3-Difluorophenyl)-4,4-dimethyl-2-oxo-1,3,2-dioxaphosphorinan-2-y]-2′,3′-carbonyl-2′-C-methyl-adenosine]	–	–	–	–	no or only trace levels of the deaminated product were measurable	no deaminated products were detected	44.5 µM	0.12 nmol/min/mg	< 2.8	–	< 7.1	21%	–
C[C@@]12OC(=O)O[C@@H]1[C@@H](CO)O[C@H]2n1cnc2c(N)ncnc21 [Compound 31.5, 2′,3′-Carbonyl-2′-C-beta-methyl-adenosine]	0%	93%	85%	75%	2′-B-C-methylinosine was detected in plasma, liver, heart, and muscle tissue	2′-β-C-methylinosine was observed	–	–	23	2522	25	95%	Specific activity (rate of prodrug disappearance) [6]: 0.28 ± 0.03 nmol/min/mg; Specific activity (rate of prodrug disappearance) [7]: 2.0 ± 0.3 nmol/min/mg; Specific activity (rate of prodrug disappearance) [8]: 0.03 ± 0.005 nmol/min/mg; Specific activity (rate of prodrug disappearance) [9]: 0.024 ± 0.003 nmol/min/mg
C[C@@]1(O)[C@H](O)[C@@H](COP2(=O)OCC[C@H](c3cccc(Cl)c3)O2)O[C@H]1n1ccc2c(N)ncnc21 (stereo partly drawn) [Example 16.1, 4-Amino-7-(cis-5′-O-[4-(3-chlorophenyl)-2-oxo-1,3,2-dioxaphosphorinan-2-yl]-2′-C-methyl-beta-D-ribofuranosyl)-7H-pyrrolo[2,3-d]pyrimidine]	–	–	–	–	–	–	–	–	–	–	–	–	melting point: 138 to 141 °C
